Measured values as given in patent US9745304B2, “Amidoimidazopyridazines as MKNK-1 kinase inhibitors” (BAYER PHARMA AKTIENGESELLSCHAFT, priority 2013, dated 2017).

Tests used:
[1] = biological target: human full-lengt MKNK1 (GST fusion, T344D) (Homo sapiens (Human), UniProt Q9BUB5, T344D); assay: MKNK1 kinase assay (TR-FRET, 10 μM ATP); type: biochemical; conditions: 15 min preincubation
Method: MKNK1-inhibitory activity of compounds of the present invention was quantified employing the MKNK1 TR-FRET assay as described in the following paragraphs.
As substrate for the kinase reaction the biotinylated peptide biotin-Ahx-[…] (C-terminus in amide form) was used which can be purchased e.g. form the company Biosyntan (Berlin-Buch, Germany).
For the assay 50 nL of a 100 fold concentrated solution of the test compound in DMSO was pipetted into a black low volume 384 well microtiter plate (Greiner Bio-One, Frickenhausen, Germany), 2 μL of a solution of MKNK1 in aqueous assay buffer [50 mM HEPES pH 7.5, 5 mM magnesium chloride, 1.0 mM dithiothreitol, 0.005% (v/v) Nonidet-P40 (Sigma)] was added and the mixture was incubated for 15 min at 22° C. to allow pre-binding of the test compounds to the enzyme before the start of the kinase reaction. […] The concentration of MKNK1 was adjusted depending of the activity of the enzyme lot and was chosen appropriate to have the assay in the linear range, typical concentrations were in the range of 0.05 μg/ml. The reaction was stopped by the addition of 5 μL of a solution of TR-FRET detection reagents (5 nM streptavidine-XL665 [Cisbio Bioassays, Codolet, France] and 1 nM anti-ribosomal protein S6 (pSer236)-antibody from Invitrogen [#44921G] and 1 nM LANCE EU-W1024 labeled ProteinG [Perkin-Elmer, product no. AD0071]) in an aqueous EDTA-solution (100 mM EDTA, 0.1% (w/v) bovine serum albumin in 50 mM HEPES pH 7.5).
(§1) The resulting mixture was incubated for 1 h at 22° C. to allow the formation of complex between the phosphorylated biotinylated peptide and the detection reagents. Subsequently the amount of phosphorylated substrate was evaluated by measurement of the resonance energy transfer from the Eu-chelate to the streptavidine-XL. Therefore, the fluorescence emissions at 620 nm and 665 nm after excitation at 350 nm were measured in a TR-FRET reader, e.g. a Rubystar (BMG Labtechnologies, Offenburg, Germany) or a Viewlux (Perkin-Elmer). The ratio of the emissions at 665 nm and at 622 nm was taken as the measure for the amount of phosphorylated substrate.

[2] = biological target: human full-length MKNK1 (GST fusion, T344D) (Homo sapiens (Human), UniProt Q9BUB5, T344D); assay: MKNK1 kinase high ATP assay (TR-FRET, 2 mM ATP); type: biochemical; conditions: 15 min preincubation
Sequence of human full-length MKNK1 (GST fusion, T344D) (Q9BUB5 other isoform, or with tags, fused parts or gaps T344D): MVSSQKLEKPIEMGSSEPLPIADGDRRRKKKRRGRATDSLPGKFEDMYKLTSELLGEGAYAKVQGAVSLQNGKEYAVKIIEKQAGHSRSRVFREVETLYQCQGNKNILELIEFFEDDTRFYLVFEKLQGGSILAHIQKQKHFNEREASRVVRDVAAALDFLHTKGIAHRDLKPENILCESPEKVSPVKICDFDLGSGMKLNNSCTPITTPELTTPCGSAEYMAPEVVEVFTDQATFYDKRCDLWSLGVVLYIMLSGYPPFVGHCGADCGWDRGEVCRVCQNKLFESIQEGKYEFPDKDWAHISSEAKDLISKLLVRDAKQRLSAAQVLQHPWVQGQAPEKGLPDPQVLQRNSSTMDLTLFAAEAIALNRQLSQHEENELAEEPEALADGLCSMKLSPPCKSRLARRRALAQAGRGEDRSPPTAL
Method: MKNK1 Kinase High ATP Assay
MKNK1-inhibitory activity at high ATP of compounds of the present invention after their preincubation with MKNK1 was quantified employing the TR-FRET-based MKNK1 high ATP assay as described in the following paragraphs.
As substrate for the kinase reaction the biotinylated peptide biotin-Ahx-[…] (C-terminus in amide form) was used, which can be purchased e.g. from the company Biosyntan (Berlin-Buch, Germany).
For the assay 50 nL of a 100 fold concentrated solution of the test compound in DMSO was pipetted into a black low volume 384 well microtiter plate (Greiner Bio-One, Frickenhausen, Germany), 2 μL of a solution of MKNK1 in aqueous assay buffer [50 mM HEPES pH 7.5, 5 mM magnesium chloride, 1.0 mM dithiothreitol, 0.005% (v/v) Nonidet-P40 (Sigma)] was added and the mixture was incubated for 15 min at 22° C. to allow pre-binding of the test compounds to the enzyme before the start of the kinase reaction. Then the kinase reaction was started by the addition of 3 μL of a solution of adenosine-tri-phosphate (ATP, 3.3 mM=>final conc. in the 5 μL assay volume is 2 mM) and substrate (0.1 μM=>final conc. in the 5 μL assay volume is 0.06 μM) in assay buffer and the resulting mixture was incubated for a reaction time of 30 min at 22° C. The concentration of MKNK1 was adjusted depending of the activity of the enzyme lot and was chosen appropriate to have the assay in the linear range, typical concentrations were in the range of 0.003 μg/mL. The reaction was stopped by the addition of 5 μL of a solution of TR-FRET detection reagents (5 nM streptavidine-XL665 [Cisbio Bioassays, Codolet, France] and 1 nM anti-ribosomal protein S6 (pSer236)-antibody from Invitrogen [#44921G] and 1 nM LANCE EU-W1024 labeled ProteinG [Perkin-Elmer, product no. AD0071]) in an aqueous EDTA-solution (100 mM EDTA, 0.1% (w/v) bovine serum albumin in 50 mM HEPES pH 7.5).
as §1

Sequence of human full-lengt MKNK1 (GST fusion, T344D) (Q9BUB5 other isoform, or with tags, fused parts or gaps T344D): as above

SMILES	IC50 [1] [µM]	IC50 [2] [µM]
O=C(Nc1ccc2ncc(-c3cc4ccccc4o3)n2n1)C(O)c1cccnc1 (stereo not drawn) [Example 3, N-[3-(1-Benzofuran-2-yl)imidazo[1,2-b]pyridazin-6-yl]-2-hydroxy-2-(pyridin-3-yl)acetamide]	0.003	0.011
O=C(Nc1ccc2ncc(-c3cc4ccccc4o3)n2n1)C(O)C1CCCCC1 (stereo not drawn) [Example 4, N-[3-(1-Benzofuran-2-yl)imidazo[1,2-b]pyridazin-6-yl]-2-cyclohexyl-2-hydroxyacetamide]	0.007	0.01
O=C(Cc1ccccn1)Nc1ccc2ncc(-c3cc4ccccc4o3)n2n1 [Example 6, N-[3-(1-Benzofuran-2-yl)imidazo[1,2-b]pyridazin-6-yl]-2-(pyridin-2-yl)acetamide]	0.007	0.012
O=C(Cc1cccc(F)c1)Nc1ccc2ncc(-c3cc4ccccc4o3)n2n1 [Example 8, N-[3-(1-Benzofuran-2-yl)imidazo[1,2-b]pyridazin-6-yl]-2-(3-fluorophenyl)-acetamide]	0.01	0.023
O=C1CC[C@@H](CO)N1c1ccc2ncc(-c3cc4ccccc4o3)n2n1 [Example 11, (5S)-1-[3-(1-Benzofuran-2-yl)imidazo[1,2-b]pyridazin-6-yl]-5-(hydroxymethyl)-pyrrolidin-2-one]	0.003	0.007
C[C@@H](O)C(=O)Nc1ccc2ncc(-c3cc4ccccc4o3)n2n1 [Example 13, (2R)—N-[3-(1-Benzofuran-2-yl)imidazo[1,2-b]pyridazin-6-yl]-2-hydroxypropanamide]	0.004	0.012
COc1nccc2oc(-c3cnc4ccc(NC(=O)[C@H](C)O)nn34)cc12 [Example 16, (2S)-2-hydroxy-N-[3-(4-methoxyfuro[3,2-c]pyridin-2-yl)imidazo[1,2-b]pyridazin-6-yl]propanamide]	0.01	0.013
CC(C)CC(=O)Nc1ccc2ncc(-c3cc4ccccc4o3)n2n1 [Example 17, N-[3-(1-Benzofuran-2-yl)imidazo[1,2-b]pyridazin-6-yl]-3-methylbutanamide]	0.004	0.007
O=C(CCc1c[nH]cn1)Nc1ccc2ncc(-c3cc4ccccc4o3)n2n1 [Example 19, N-[3-(1-Benzofuran-2-yl)imidazo[1,2-b]pyridazin-6-yl]-3-(1H-imidazol-4-yl)-propanamide]	0.008	0.006
N#Cc1cccc(CC(=O)Nc2ccc3ncc(-c4cc5ccccc5o4)n3n2)c1 [Example 21, N-[3-(1-benzofuran-2-yl)imidazo[1,2-b]pyridazin-6-yl]-2-(3-cyanophenyl)acetamide]	0.014	0.011
O=C(CCC1CC1)Nc1ccc2ncc(-c3cc4ccccc4o3)n2n1 [Example 22, N-[3-(1-benzofuran-2-yl)imidazo[1,2-b]pyridazin-6-yl]-3-cyclopropylpropanamide]	0.013	0.023
CCN(CC)CCC(=O)Nc1ccc2ncc(-c3cc4ccccc4o3)n2n1 [Example 23, N-[3-(1-benzofuran-2-yl)imidazo[1,2-b]pyridazin-6-yl]-N^3,N^3-diethyl-β-alaninamide]	0.009	0.013
Cc1cccc(CCC(=O)Nc2ccc3ncc(-c4cc5ccccc5o4)n3n2)c1 [Example 31, N-[3-(1-benzofuran-2-yl)imidazo[1,2-b]pyridazin-6-yl]-3-(3-methylphenyl)propanamide]	0.067	0.062
CC1CCN(CC(=O)Nc2ccc3ncc(-c4cc5ccccc5o4)n3n2)CC1 [Example 32, N-[3-(1-benzofuran-2-yl)imidazo[1,2-b]pyridazin-6-yl]-2-(4-methylpiperidin-1-yl)acetamide]	0.017	0.018

Continued by falling IC50 [1], values first:

IC50 [1] [µM]	IC50 [2] [µM]	SMILES
0.036	0.036	O=C(Nc1ccc2ncc(-c3cc4ccccc4o3)n2n1)c1cc(=O)[nH]c(=O)[nH]1 [Example 10, N-[3-(1-Benzofuran-2-yl)imidazo[1,2-b]pyridazin-6-yl]-2,6-dioxo-1,2,3,6-tetrahydropyrimidine-4-carboxamide]
0.025	0.036	N#CC1(C(=O)Nc2ccc3ncc(-c4cc5ccccc5o4)n3n2)CC1 [Example 24, N-[3-(1-benzofuran-2-yl)imidazo[1,2-b]pyridazin-6-yl]-1-cyanocyclopropane carboxamide]
0.008	0.018	O=C(Cc1ccccc1)Nc1ccc2ncc(-c3cc4ccccc4o3)n2n1 [Example 1, N-[3-(1-Benzofuran-2-yl)imidazo[1,2-b]pyridazin-6-yl]-2-phenylacetamide]
0.008	0.02	C[C@H](O)C(=O)Nc1ccc2ncc(-c3cc4ccccc4o3)n2n1 [Example 14, (2S)—N-[3-(1-Benzofuran-2-yl)imidazo[1,2-b]pyridazin-6-yl]-2-hydroxypropanamide]
0.007	0.018	O=C(Nc1ccc2ncc(-c3cc4ccccc4o3)n2n1)C(O)c1ccccc1 (stereo not drawn) [Example 2, N-[3-(1-Benzofuran-2-yl)imidazo[1,2-b]pyridazin-6-yl]-2-hydroxy-2-phenylacetamide]
0.003	0.007	O=C(CCc1cccnc1)Nc1ccc2ncc(-c3cc4ccccc4o3)n2n1 [Example 9, N-[3-(1-Benzofuran-2-yl)imidazo[1,2-b]pyridazin-6-yl]-3-(pyridin-3-yl)propanamide]
0.003	0.007	COc1nccc2oc(-c3cnc4ccc(NC(=O)[C@@H](C)O)nn34)cc12 [Example 15, (2R)-2-hydroxy-N-[3-(4-methoxyfuro[3,2-c]pyridin-2-yl)imidazo[1,2-b]-pyridazin-6-yl]propanamide]
